Results on three molecules are retold here after US7098195B2, “Fluorinated glucosamine analogs useful for modulating post-translational glycosylations on cells” (Health Research, Inc., priority 2001, dated 2006).

For one series, the system named is human CLA+ T-cells. The series can be described thus: Growth inhibition of human CLA+ T-cell cultures (Trypan-blue exclusion). The class given is cell-based.
In series [1] the test system is HECA-452 epitopes on human hematopoietic KG1a cells. Kind of series: Flow cytometric analysis of HECA-452 epitopes on KG1a cells. The class given is cell-based. An excerpt: (§1) In a similar set of experiments, we analyzed the effects of 4-F-GlcNAc on selectin ligand expression and function on the human hematopoietic cell line KGla. KGla cells express a distinct HECA-452-reactive CD44 glycoform that functions as both an E- and L-selectin ligand (Dimitroff, C. J. et al. (2001) J. Cell Biol., 53: 1277–1286; Dimitroff, C. J. et al. (2000) Proc. Nat. Acad. Sci., 97(25):13841–46; Sackstein, R. and Dimitroff, C. J. (2000) Blood, 96: 2765–74.), otherwise known as HCELL, respectively. This specialized glycoform represents a major E-selectin and the primary L-selectin ligand on normal CD34+ HPCs and on leukemic cells, and, therefore, is also implicated in the BM homing aspects and growth-related activities of HPCs in vivo, respectively (Id.). We first performed flow cytometric analysis of HECA-452 antigen and CD44 on 4-F-GlcNAc-treated KGla cells. […] Only positive cells, which were those cells with fluorescence above background autofluorescence and fluorochrome-conjugated secondary Ab staining, were analyzed.
(§2) Flow cytometric analysis was performed on human leukocytes utilizing both direct and indirect immunofluorescence staining approaches. All cells utilized for these experiments were washed twice with cold PBS/2%FBS and suspended at 10^7/ml PBS/1% FBS. Primary antibodies, anti-CLA (HECA-452), -CD4, -CD8, CD43 (L60) and PSGL-1 (PL-2) along with the appropriate isotype-matched control antibodies were incubated with the cells for 30 min on ice. Following two washes with PBS/2%FBS, cells were resuspended in PBS/1%FBS and fluorochrome-conjugated secondary antibodies (2 μl) and incubated for 30 min on ice. Cells were washed twice with PBS/2%FBS, resuspended in PBS and flow cytometry was performed on a FACScan apparatus equipped with an argon laser tuned at 488 nm (Becton Dickinson).

The test system of series [2] is CD44 on human hematopoietic KG1a cells. The series can be described thus: Flow cytometric analysis of CD44 on KG1a cells. The class given is cell-based.
Description: as §1, §2

The test system of another series is C57BL6 mice. Kind of series: DNFB-induced delayed type hypersensitivity (ear swelling) in mice. In kind it is in vivo, mouse. The protocol: (§3) Previous studies evaluating the anti-tumor and anti-metastatic effects of fluorinated hexosamine analogs and 3 or 4-F-GlcNAc, specifically, indicate that the dose limiting toxicity was ˜250 mg/kg×6 days and that i.p. administration of these sugar analogs was an efficacious mode of delivery. Thus, in these studies, a maximal dose of 250 mg/kg as well as 100 and […] doses were used in order to make both toxic and efficacy assessments of fluorinated hexosamine analog anti-inflammatory effects. To induce delayed type hypersensitivity (DTH), C57BL6 mice were sensitized on their abdomen on days 0 and 1 with 25 μl of 0.5% 2,4-dinitrofluorobenzene (DNFB) (i.e. hapten) in a 4:1 solution of acetone to olive oil (vehicle). Negative control mice were sensitized with vehicle alone. Mice were then treated from days 0–6 with drug vehicle (0.9% saline), 50 mg/kg 4-F-GlcNAc, 100 mg/kg 4-F-GlcNAc, 250 mg/kg 4-F-GlcNAc or 250 mg/kg GlcNAc (negative sugar control). Hapten-induced inflammation was then promoted on day 6 by challenging the mice with 10 μl of 0.25% DNFB on both sides of the right ear and mice also received 10 μl of vehicle alone on both sides of the left ear as a negative inflammatory control. Ear swelling responses were measured 24 h later on day 7 and subtracted from baseline measurements that were recorded on day 6.
Histological analysis of right ears from mice receiving sensitizing and challenging hapten doses that were treated with saline vehicle control did show the presence of lymphocytic infiltrate and amount of lymphocytic infiltrate corresponded to ear swelling measurements (See FIG. 14 Panel B).

Series [3] can be described thus: Toxicity (body weight, white cell counts, tolerability) in DTH mice. In kind it is in vivo, mouse. The protocol:
as §3, with “Thus,” for “Previous studies evaluating the anti-tumor and anti-metastatic effects of fluorinated hexosamine analogs and 3 or 4-F-GlcNAc, specifically, indicate that the dose limiting toxicity was ˜250 mg/kg×6 days and that i.p. administration of these sugar analogs was an efficacious mode of delivery. Thus,”

Another series relates to C57BL/6 mice. Kind of series: Langerhans cell migration to draining lymph nodes and FITC presentation in mice. Particulars: 250 mg/kg/day, cumulative dose of 750 mg/kg, 4-day experiment. The class given is in vivo, mouse.
The conditions of series [4]: previous studies; cited from earlier work.
Series [5] deals with human colon HT-29 cancer cells. Particulars: HT-29 cells; cited from earlier work.
For series [6], the system named is human ovarian, A121, tumor cells. Conditions: cited from earlier work.
For series [7], the system named is HCELL/CD44 activity on human hematopoietic KG1a cells. The series can be described thus: Stamper-Woodruff adhesion assay, L-selectin-dependent lymphocyte adherence to KG1a cells. In kind it is cell-based. Conditions: KG1a neuraminidase then recovery in 0.02 mM.
The mark [8] stands for this setting: KG1a neuraminidase then recovery in 0.05 mM.
[9] abbreviates: KG1a neuraminidase then recovery in 0.1 mM.
The mark [10] stands for this setting: KG1a neuraminidase then recovery in 0.5 mM.

Description for C57BL/6 mice: Six to eight-week old C57BL/6 mice from Charles River Laboratories (Wilmington, Mass.) were housed in pathogen-free conditions in the animal facility at the Harvard Institutes of Medicine and utilized in these experiments. For analysis of LC migration to draining lymph nodes and antigenic presentation by dendritic cells (DC), right ears of mice were painted with 25 μl of 0.5% FITC, a contact sensitizing agent dissolved in acetone-dibutyl phthalate vehicle (1:1 v/v), while left ears were painted with 25 μl of vehicle alone. After 30 h, regional auricular/cervical lymph nodes draining right or left ears, respectively, were isolated and single cell suspensions were prepared. To enrich for DC, cell suspensions were subjected to Optiprep™ (Accurate Chemicals, Westbury, N.Y.) discontinuous gradient centrifugation. […] Positive cells stained with PE-anti-CD11c were gated and analyzed for FITC expression. […]
Following a 30 h incubation, CD11c-positive LC isolated from the draining lymph nodes were analyzed for FITC expression by flow cytometry.
Description for human CLA+ T-cells: To determine a suitable concentration of 4-F-GlcNAc for examining glycoconjugate-modifying effects without influencing cell growth or protein synthesis, we performed preliminary growth inhibitory experiments of cells incubated with 4-F-GlcNAc for 2 cell doublings (˜36 h) at 37° C. (cell viability assessed by Trypan-blue exclusion).

Regarding `CC(=O)N[C@H]1C(OC(C)=O)O[C@H](COC(C)=O)[C@@H](F)[C@@H]1OC(C)=O` (stereo partly drawn) [4-F-GlcNAc, 2-acetamido-2-deoxy-1,3,6-tri-O-acetyl-4-deoxy-4-fluoro-D-glucopyranose], the “IC10 value (growth inhibition)” value in the series on human CLA+ T-cells (2 cell doublings (~36 h) at 37° C., Trypan-blue exclusion) is over 0.2 mM. For the same molecule, the “growth inhibitory effects on CLA+ T-cell cultures” value with human CLA+ T-cells (treated for 36 hr at concentrations less than 0.5 mM) is “no inhibition of growth”. The “de novo re-expression of the HECA-452 epitopes on KG1a cells” value in series [1] (0.05, 0.1 or 0.5 mM after neuraminidase) is “inhibited in a concentration-dependent manner”. The “HECA-452 Mean Channel Fluorescence” value was found to be 112 in series [1] (setting [8]), 108 in series [1] (setting [9]) and 43 in series [1] (setting [10]). Further, the “CD44 % Positive Cell Staining” value in series [2] (setting [8]), in [2] (setting [9]) and in series [2] (setting [10]) was 100% throughout. The “expression of CD44 on KG1a cells” value in [2] (even at 0.5 mM) was “no reduction”. Besides, the “inflammatory response (ear swelling)” value with C57BL6 mice (50 mg/kg, days 0–6, i.p., p<0.0002) is “statistically significant diminution”; in the series with C57BL6 mice (100 mg/kg, days 0–6, i.p.) it was “completely abrogated”; in the series with C57BL6 mice (250 mg/kg, days 0–6, i.p.) it was “completely abrogated”. In addition, in the series on C57BL6 mice (FucTVII −/− mice), the “inflammatory responses in FucTVII −/− mice” value is reported as “further reduced”. For the same molecule, the WBC counts entry in series [3] (50 mg/kg, days 0–6) is on record as “did not affect”. Moreover, in series [3] (50 mg/kg, days 0–6), the mouse body weight entry is listed as “did not affect”. The “reduction in body weight” value in [3] (250 mg/kg, days 0–6) is given as about 5%. Further, the “total white cell counts” value in [3] (250 mg/kg, days 0–6) was 60 % of drug controls. Besides, the tolerability entry was “therapy-limiting” in series [3] (250 mg/kg/d×6); “well-tolerated” in [3] (100 and 50 mg/kg/d×6 days). Besides, the weight gain result in the series on C57BL/6 mice is “did not show similar weight gain”. In series [4], the dose limiting toxicity is about 250 mg/kg×6 days. Also, in [5], the “radiolabeled sugar incorporation into cell surface glycoproteins” value was “inhibition of radiolabeled glucosamine, fucose and galactose incorporation”. Besides, the “incorporation of radiolabeled sugar precursors” value in [6] was “conspicuous reductions”.

Turning to `CC(=O)N[C@H]1C(O)O[C@H](CO)[C@@H](O)[C@@H]1O` (stereo partly drawn) [GlcNAc, N-acetylglucosamine], the “inflammatory response (ear swelling)” value in the series with C57BL6 mice (250 mg/kg negative sugar control, days 0–6) is on record as “no anti-inflammatory effect”.

Take tunicamycin: in series [7], the “% Inhibition (lymphocyte binding)” value is 99% and the “Mean Lymphocyte Binding” value is 3.0.
